Measured values reported in US9138447B2, “Antimicrobial agent and method for the production thereof” (UNIVERSITY COLLEGE CARDIFF CONSULTANTS LTD., priority 2008, dated 2015).

Test system: methicillin resistant Staphylococcus aureus (MRSA)
Test: Growth inhibition of MRSA
Format: cell-based
Text: Mupirocin (Pseudomonic acid A, or Bactroban) is the frontline topical antibiotic used to combat skin infections with gram positive bacteria and is also used in the eradication of MRSA from infected people. It was originally produced as Bactroban by GlaxoSmithKline, but now it is available generically within a number of different commercial formulations. MRSA strain 52 is susceptible to both the P. fluorescens mupirocin (Panel A) and Vietnamycin (BVAS; Panel B). However, MRSA strain 49 is representative of a number of emerging S. aureus strains that are resistant to mupirocin (Panel C).

SMILES: C/C(=C\C(=O)OCCCCCCCCC(=O)O)C[C@@H]1OC[C@H](C[C@@H]2O[C@H]2[C@@H](C)[C@H](C)O)[C@@H](O)[C@H]1O [mupirocin, Mupirocin]
- Growth inhibition of mupirocin resistant MRSA (strain 49) (mupirocin resistant strain): resistant
- Growth inhibition of MRSA strain 52 (mupirocin susceptible strain, producer bacterium overlay): susceptible
